Results from patent US11643429B2, “Compounds and methods for the treatment of ocular disorders” (Azura Ophthalmics Ltd., priority 2019, dated 2023).

Legend:
[1] = Aqueous Hydrolysis Stability Assay; type: physicochemical; settings: New Zealand White, rabbit, rabbit cornea homogenate (esterase assay) in HEPES buffer, pH 7.5; ND, estimated from esterase assay; read-out: T1/2 Aq Stability
[2] = Rabbit Cornea Homogenate Stability Assay (Rabbit Cornea Esterase Assay); type: in vitro ADME; settings: New Zealand White, 37° C., half-life of parent conjugate
Description: Determining Rabbit Cornea Homogenate stability of the test compounds was performed using HPLC-MS. The assay was performed at two concentrations of Rabbit Cornea Homogenate (0.15 mg/ml and 0.45 mg/ml total protein) so that any hydrolysis observed could be assigned as esterase dependent or not.
Five rabbit corneas (e.g. New Zealand Whites) of approx. 50 mg each were sliced and scraped with a scalpel and tweezers until reduced to small (1-3 mm), thin pieces. These were transferred into a tared vial and accurately weighed, then diluted with 10 volumes aqueous PBS pH7.4
Sample was cooled intermittently on ice and shear homogenized for 3 minutes, then centrifuged for 3 min at 3000 rpm. The supernatant was pipetted off into a vial, and total protein concentration determined at 280 nm. Sample was stored at −78° C.
10 mM Compound stocks were diluted to 100 μM in a 96 deep-well plate: 10 μl of 10 mM Compound stock was added to 990 μl 50 mM HEPES, pH7.5 buffer.
Compounds were further diluted to 10 μM: 100 μl of 100 μM compound was added to 900 μl 50 mM HEPES, pH7.5 buffer.
Esterase homogenate was diluted to 300 ng/μl and 900 ng/μl
A heater shaker was set to 37° C. Into a suitable 96 well plate (Run Plate), 75 μl of 300 or 900 ng/μl esterase homogenate was pipetted into each of the required wells (2 min, 5 min, 10 min, 20 min and 45 min). The plate was sealed and then warmed at 37° C. for 5 min. Another 96 well PCR plate was put on ice (Kill Plate). To this was added 100 μl of MeCN to each well, labelled 0 min 2 min, 5 min, 10 min, 20 min and 45 min. The plate was covered to minimise evaporation. For the T=0 sample only, to the 100 μl cold MeCN stop solution was added 50 μl of 300 or 900 ng/μl esterase homogenate followed by 50 μl of 10 μM compound solution For the remaining timepoints, 75 μl of 10 μM compound solution was added to the Run Plate starting from T=45 min row and ending with T=2 min row. At the appropriate time point, 100 μl of the assay mixture was added to the matching kill plate well containing 100 μl of cold MeCN. Samples were analysed as soon as practicable by LCMS (Waters Xevo TQ-S or Micromass Ultima). Parent conjugate and parent concentrations were determined against appropriate standard response curves and the half-life (T1/2) of the parent conjugate was calculated using the peak area of the parent conjugate at each time point in the linear region of the log-linear plot.

[3] = Aqueous Hydrolysis Stability Assay; type: physicochemical; settings: 50 mM HEPES buffer pH 7.5; HEPES pH 7.5, room temperature; read-out: T1/2 Aq Stability
Description: Determination of aqueous stability of the test compounds was performed using HIPLC-MS. A test compound 10 mM stock solution was prepared in DMSO. 10 μl of the DMSO stock solution was dissolved in 990 μl of 50 mM HEPES pH 7.5 buffer or 1:1 (v/v) of Acetonitrile:Water to make a 100 μM solution. Final DMSO concentration was 1%. The solution was kept at room temperature and injected without delay into the LCMS (Waters Xevo TQ-S or Micromass Ultima). Additional injections were performed at appropriate time points. Half-life (T1/2) of the parent conjugate was calculated using the peak area of the parent conjugate at each time point in the linear region of the log-linear plot.

[4] = pH 7.5, Rabbit Cornea Homogenate 0.15 mg/ml total protein, read-out: T1/2 Esterase (min) (0.15 mg/ml Homogenate)
[5] = pH 7.5, Rabbit Cornea Homogenate 0.45 mg/ml total protein, read-out: T1/2 Esterase (min) (0.45 mg/ml Homogenate)

SMILES | half-life at 5 µM [1] | half-life at 5 µM [2, 4] | half-life at 5 µM [2, 5] | half-life at 100 µM [3]
CC[C@H]1OC(=O)[C@H](C)[C@@H](O[C@H]2C[C@@](C)(OC)[C@@H](O)[C@H](C)O2)[C@H](C)[C@@H](O[C@@H]2O[C@H](C)C[C@H](N(C)C)[C@H]2OC(=O)Cc2ccc(OC)cc2)[C@](C)(O)C[C@@H](C)CN(C)[C@H](C)[C@@H](O)[C@]1(C)O [Compound 3, (2S,3R,4S,6R)-4-(Dimethylamino)-2-(((2R,3S,4R,5R,8R,10R,11R,12S,13S,14R)-2-ethyl-3,4,10-trihydroxy-13-(((2R,4R,5S,6S)-5-hydroxy-4-methoxy-4,6-dimethyltetrahydro-2H-pyran-2-yl)oxy)-3,5,6,8,10,12,14-heptamethyl-15-oxo-1-oxa-6-azacyclopentadecan-1-yl)oxy)-6-methyltetrahydro-2H-pyran-3-yl 2-(4-methoxyphenyl)acetate] |  | 35 min | 39 min | 42 min
CC[C@H]1OC(=O)[C@H](C)[C@@H](O[C@H]2C[C@@](C)(OC)[C@@H](O)[C@H](C)O2)[C@H](C)[C@@H](O[C@@H]2O[C@H](C)C[C@H](N(C)C)[C@H]2OC(=O)SC[C@H](NC(C)=O)C(=O)OC)[C@](C)(O)C[C@@H](C)CN(C)[C@H](C)[C@@H](O)[C@]1(C)O [Compound 14, Methyl N-acetyl-S-((((2S,3R,4S,6R)-4-(dimethylamino)-2-(((2R,3S,4R,5R,8R,10R,11R,12S,13S,14R)-2-ethyl-3,4,10-trihydroxy-13-(((2R,4R,5S,6S)-5-hydroxy-4-methoxy-4,6-dimethyltetrahydro-2H-pyran-2-yl)oxy)-3,5,6,8,10,12,14-heptamethyl-15-oxo-1-oxa-6-azacyclopentadecan-11-yl)oxy)-6-methyltetrahydro-2H-pyran-3-yl)oxy)carbonyl)-L-cysteinate] |  | > 120 min | > 120 min | > 120 min
CC[C@H]1OC(=O)[C@H](C)[C@@H](O[C@H]2C[C@@](C)(OC)[C@@H](O)[C@H](C)O2)[C@H](C)[C@@H](O[C@@H]2O[C@H](C)C[C@H](N(C)C)[C@H]2OC(=O)CCOCCOCCOCCOCCO)[C@](C)(O)C[C@@H](C)CN(C)[C@H](C)[C@@H](O)[C@]1(C)O [Compound 5, (2S,3R,4S,6R)-4-(Dimethylamino)-2-(((2R,3S,4R,5R,8R,10R,11R,12S,13S,14R)-2-ethyl-3,4,10-trihydroxy-13-(((2R,4R,5S,6S)-5-hydroxy-4-methoxy-4,6-dimethyltetrahydro-2H-pyran-2-yl)oxy)-3,5,6,8,10,12,14-heptamethyl-15-oxo-1-oxa-6-azacyclopentadecan-11-yl)oxy)-6-methyltetrahydro-2H-pyran-3-yl 1-hydroxy-3,6,9,12-tetraoxapentadecan-15-oate] |  | 21 min | 24 min | 72 min

Second part, the molecule after the results:

half-life at 5 µM [1] | half-life at 5 µM [2, 4] | half-life at 5 µM [2, 5] | half-life at 100 µM [3] | SMILES
~51 min | 53 min | 49 min |  | CC[C@H]1OC(=O)[C@H](C)[C@@H](O[C@H]2C[C@@](C)(OC)[C@@H](O)[C@H](C)O2)[C@H](C)[C@@H](O[C@@H]2O[C@H](C)C[C@H](N(C)C)[C@H]2OC(=O)O[C@H](C)C(=O)OC)[C@](C)(O)C[C@@H](C)CN(C)[C@H](C)[C@@H](O)[C@]1(C)O [Compound 10, Methyl (R)-2-(((((2S,3R,4S,6R)-4-(dimethylamino)-2-(((2R,3S,4R,5R,8R,10R,11R,12S,13S,14R)-2-ethyl-3,4,10-trihydroxy-13-(((2R,4R,5S,6S)-5-hydroxy-4-methoxy-4,6-dimethyltetrahydro-2H-pyran-2-yl)oxy)-3,5,6,8,10,12,14-heptamethyl-15-oxo-1-oxa-6-azacyclopentadecan-11-yl)oxy)-6-methyltetrahydro-2H-pyran-3-yl)oxy)carbonyl)oxy)propanoate]
 | > 120 min | > 120 min | > 120 min | CC[C@H]1OC(=O)[C@H](C)[C@@H](O[C@H]2C[C@@](C)(OC)[C@@H](OC(C)=O)[C@H](C)O2)[C@H](C)[C@@H](O[C@@H]2O[C@H](C)C[C@H](N(C)C)[C@H]2O)[C@](C)(O)C[C@@H](C)CN(C)[C@H](C)[C@@H](O)[C@]1(C)O [Compound 13, (2S,3S,4R,6R)-6-(((2R,3S,4R,5R,8R,10R,11R,12S,13S,14R)-11-(((2S,3R,4S,6R)-4-(Dimethylamino)-3-hydroxy-6-methyltetrahydro-2H-pyran-2-yl)oxy)-2-ethyl-3,4,10-trihydroxy-3,5,6,8,10,12,14-heptamethyl-15-oxo-1-oxa-6-azacyclopentadecan-13-yl)oxy)-4-methoxy-2,4-dimethyltetrahydro-2H-pyran-3-yl acetate]
